We go through 5 compounds from patent publication US6858633B1, “Substituted 2-arylbenzazole compounds and their use as antitumour agents” (Cancer Research Technology Limited, priority 1999, dated 2005).

A word on the pIC50: it is −log10 of the IC50, conventionally taken in molar units. Read a high pIC50 as a low IC50.

pIC50: −log10 of the molar value.

The test system of series [1] is certain human breast cancer cell lines. The conditions noted are these: WO 95/06469; cited from earlier work.
The subject of series [2] is MCF-7. The series can be described thus: In vitro cytotoxicity, 3-day MTT assay, MCF-7. Type of series: cell-based, human. The conditions noted are these: 3-day MTT assay, n=8. As to the method: (§1) In carrying out the following cytoloxicity assays, the method used corresponds substantially to the following example: • Cells were maintained in a continuous logarithmic culture in RMPI 1640 with L-glutamine medium, supplemented with 10% fetal calf serum, penicillin (100 IU/ml) and streptomycin (100 μg/ml). The cells were mildly trypsinized for passage and for use in assays. • On day one, 180 μl of trypsinized tumour cells (5×10^3 ml^−1) were placed in the wells of 96-well, flat-bottom microtiter plates. Columns 1 and 12 were filled with 300 μl medium to protect from evaporation. The plates were incubated for 24 hours at 37° C. and 5% CO2 in air to allow the cells to adhere and resume exponential growth prior to the addition of drugs. The compounds being tested were dissolved in DMSO and stored as 10 mM stock solutions at 4° C., protected from light. […] 20 μl of drug dilution was added to the other wells with the lowest concentration in column 3 and the highest concentration in column 11. The plates were incubated for 72 hours at 37° C. and 5% CO2 in air. Each compound was tested in triplicate. At the time of drug addition, a plate of untreated cells was read to provide an initial optical density value for use in the calculation of the IC50. • On day five the plates were read. 50 μl MTT (1 mg/ml^−1) was added per well and the plates incubated for a further 4 hours. The MTT is metaboliscd to form a blue formazan product. The MTT solution was aspirattd and 125 μl DMSO:glycine buffer (4:1) was added. The plates were placed on a plate shaker until the fornazan crystals had dissolved and absorbance was ready at 550 nm on a plate reader. • For each compound tested, a dose response curve was obtained and the IC50 statue (drug concentration at 50% inhibition of cell growth) was calculated.
(§2) (n=8) for a range of compounds in relation to MCF-7 and MDA 468 cell lines.

Series [3] has as its system MDA468. As to the kind of experiment: In vitro cytotoxicity, 3-day MTT assay, MDA468. Type of series: cell-based. The conditions noted are these: n=8. As to the method: as §1, §2
A general note: Formazan colour is commonly taken as a measure of viable cells.

Series [4] can be described thus: Stability in plasma in vitro. Type of series: in vitro ADME, rat. The conditions noted are these: rat, plasma.
For series [5], the system named is MCF-7 cells. As to the kind of experiment: Conversion of prodrug to parent in culture of MCF-7 cells. In kind it is cell-based.
The conditions of series [6]: rat, in vivo, iv, 25 mg/kg.
The subject of series [7] is sensitive cell lines. As to the kind of experiment: Biphasic dose-response relationship (second growth phase) in sensitive cell lines. In kind it is cell-based. An excerpt: One feature of the prior art compounds is that they show a biphasic dose-response relationship specifically in sensitive cell lines: cell kill occurs at low nanomolar concentrations of the compounds, followed by a potentially undesirable proliferative response at low micromolar concentrations (termed the “second growth phase”).

For series [8], the system named is COLO205 xenografts. The series can be described thus: In vivo COLO205 xenograft study (FIG. 2).
Series [9] is described as follows: Blood parameters and liver transaminases in xenograft studies. The conditions noted are these: mouse, in vivo. Details: species or system nude mice.
Series [10] in a line: Plasma concentrations after administration to mice. Type of series: in vivo. The conditions noted are these: mouse, 70 μmol/kg, read-out: Geometric Mean Plasma Concentration.
In series [11] the test system is ER positive MCF-7 human breast tumor xenografts. The conditions noted are these: for growth inhibition of MCF-7 xenografts: given i.p.
Series [12] concerns ER negative MT-1 human breast tumor xenografts. The conditions noted are these: for tumor growth inhibition in MT-1 xenografts / weight loss in MT-1 xenograft study: dose dependence.
Series [13] deals with cell lines that relate to a range of various mammalian cancers other than human breast cancer. The conditions noted are these: WO 96/26932; cited from earlier work.

For `Nc1ccc(-c2nc3ccccc3s2)cc1` [CJM 126, 2-(4′-aminophenyl)benzothiazole], the “specific inhibitory activity in human breast cancer cell lines” value in [1] is reported as “remarkably high specific inhibitory activity”.
As to `Cc1cc(-c2nc3cc(F)ccc3s2)ccc1NC(=O)C(N)CCCCN.Cl.Cl` (centres unmarked) [Compound Iad, 5-Fluoro-2-(4′-amino-3′-methylphenyl)benzothiazole Lysyl Amide Dihydrochloride Salt], the pIC50 was 7.40 in series [2] and 6.80 in series [3]. Also, the “stability in plasma in vitro” value in series [4] is reported as “stable”. Also, in series [5], the “concentration of parent compound 5F203 after addition of prodrug to MCF-7 culture” value was “progressive increase in concentration of the parent compound 5F203”. In addition, the “removal from plasma and reconversion to parent compound in vivo” value in series [6] was “readily removed from such plasma and reconverted to their parent compound in vivo”.
Turning to `Cc1cc(-c2nc3cc(F)ccc3s2)ccc1N` [Compound Ik, 5-Fluoro-2-(4′-amino-3′-methylphenyl)benzothiazole], the pIC50 in [2] (Homo sapiens, MCF7, 72 h) is over 10.00. For the same compound, the pIC50 in series [3] (72 h) is over 10.00. For the same compound, the “biphasic dose-response (second growth phase)” value in [7] is reported as “the biphasic response is eliminated”. Also, the “tumour growth inhibition, COLO205 xenografts (FIG. 2)” value in series [8] is given as “tumour growth inhibition observed”. The “blood parameters (white blood cell and platelet counts) and level of liver transaminases” value in [9] was “not adversely affected”. Besides, the concentration at 3.5 min in series [10] (mean sample time 3.5 min) turned out to be 1180 nM. In addition, in series [10] (mean sample time 6.5 min), the concentration at 6.5 min amounted to 1530 nM. Also, the concentration at 9.5 min in series [10] (mean sample time 9.5 min) was 1840 nM. The concentration at 12.5 min in [10] (mean sample time 12.5 min) stood at 2270 nM. Moreover, the concentration at 15.5 min in [10] (mean sample time 15.5 min) stood at 3270 nM. In addition, the concentration at 20.8 min in [10] (mean sample time 20.8 min) is 2680 nM. The concentration at 30.5 min in series [10] (mean sample time 30.5 min) amounted to 3770 nM. The concentration at 45.4 min in series [10] (mean sample time 45.4 min) came to 3410 nM. The concentration at 60.5 min in series [10] (mean sample time 60.5 min) came out at 4110 nM. In addition, in [10] (mean sample time 90.6 min), the concentration at 90.6 min amounted to 3520 nM. Also, the concentration at 120.5 min in series [10] (mean sample time 120.5 min) amounted to 2630 nM. In addition, the concentration at 240 min in series [10] (mean sample time 240.0 min) was determined as 1000 nM. Also, the concentration at 360 min in series [10] (mean sample time 360.0 min) turned out to be 590 nM. Moreover, the “toxicity in MCF-7 xenograft study” value in series [11] (12.5 mg/kg, i.p.) was “toxic”. In series [11], the “tumour growth inhibition, MCF7 xenografts (FIG. 1)” value was “Tumour growth inhibition observed” and the “growth inhibition of MCF-7 xenografts” value is recorded as “Significant growth inhibition”. Besides, the “toxicity in MT-1 xenograft study” value in series [12] (25 mg/kg, parent compounds) is “toxic”. In series [12], the “tumor growth inhibition in MT-1 xenografts” value was “dose-dependent tumor growth inhibition” and the “weight loss in MT-1 xenograft study” value is given as “weight loss”.
Take `Cc1cc(-c2nc3ccccc3s2)ccc1N` [DF203, 2-(4′-amino-3′-methylphenyl)benzothiazole, reference compound]: in series [11], the “tumour growth inhibition, MCF7 xenografts (FIG. 1)” value is on record as “Tumour growth inhibition observed”. Moreover, the “anti-proliferative activity in cell lines of cancers other than human breast cancer” value in series [13] is reported as “exhibit anti-proliferative activity selectively”.
Take `Cc1cc(-c2nc3ccc(F)cc3s2)ccc1N` [Ib, 6-Fluoro-2-(4′-amino-3′-methylphenyl)benzothiazole]: the pIC50 in series [2] (Homo sapiens, MCF7, 72 h) is over 10.00. In [3] (72 h), the pIC50 was 9.96. The “biphasic dose-response (second growth phase)” value in [7] is given as “the biphasic response is eliminated”. The “tumour growth inhibition, COLO205 xenografts (FIG. 2)” value in series [8] is on record as “tumour growth inhibition observed”. Also, the “blood parameters (white blood cell and platelet counts) and level of liver transaminases” value in series [9] is recorded as “not adversely affected”. The “growth inhibition of MCF-7 xenografts” value in [11] is on record as “Significant growth inhibition”. In addition, the “growth inhibition of MT-1 xenografts compared with same dose of (Ik)” value in series [12] (12.5 mg/kg) is on record as “more pronounced growth inhibition”. For the same compound, in series [12], the “tumor growth inhibition in MT-1 xenografts” value is “dose-dependent tumor growth inhibition” and the “weight loss in MT-1 xenograft study” value is reported as “weight loss”.
